Test results published in US12565501B2, “Muscarinic acetylcholine M1 receptor antagonists” (Contineum Therapeutics, Inc., priority 2019, dated 2026).

Each compound was assayed against T1, human M1 receptor (Homo sapiens, UniProt P11229) (assay: In vitro functional assay of muscarinic acetylcholine receptor activity (aequorin calcium flux, reversal of EC80 acetylcholine response)). Settings: CHO-K1 cells stably expressing human M1 receptor with aequorin; acetylcholine at EC80; calcium flux (luminescence); read-out: M1 IC50.
T1 sequence (P11229 1-460): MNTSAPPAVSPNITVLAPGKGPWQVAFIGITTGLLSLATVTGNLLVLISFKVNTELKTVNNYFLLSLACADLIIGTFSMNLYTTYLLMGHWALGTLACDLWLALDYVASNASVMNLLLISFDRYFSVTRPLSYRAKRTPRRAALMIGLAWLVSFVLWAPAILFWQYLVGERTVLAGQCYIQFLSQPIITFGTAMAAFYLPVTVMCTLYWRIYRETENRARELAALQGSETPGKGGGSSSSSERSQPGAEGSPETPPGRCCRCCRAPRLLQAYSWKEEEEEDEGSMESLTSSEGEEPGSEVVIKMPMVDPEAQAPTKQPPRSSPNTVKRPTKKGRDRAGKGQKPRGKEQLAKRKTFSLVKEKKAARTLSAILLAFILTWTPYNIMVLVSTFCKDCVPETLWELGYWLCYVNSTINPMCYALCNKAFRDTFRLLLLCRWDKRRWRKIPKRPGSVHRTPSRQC
Assay type: cell-based
Method in brief: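 Antagonist mode: compound (final 0.1% DMSO) and coelenterazine-loaded M1/aequorin CHO-K1 cells incubated 30 min in the dark before EC80 acetylcholine addition. Calcium flash integrated as 40 s luminescence AUC; IC50 derived from dose-response curves.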
Compound N#Cc1ccc(N2C3CCC2CN(C(=O)CNC2(c4ccc(F)cc4F)CC2)C3)cc1 [Example 85, 4-(3-((1-(2,4-difluorophenyl)cyclopropyl)glycyl)-3,8-diazabicyclo[3.2.1]octan-8-yl)benzonitrile] has an IC50 of 10 to 100 nM.
N#Cc1ccc(N2C[C@H]3CC[C@@H]2CN3C(=O)CCNC2(c3ccc(F)c(F)c3)CC2)nc1 [Example 41, 6-((1R,4R)-5-(3-((1-(3,4-difluorophenyl)cyclopropyl)amino)propanoyl)-2,5-diazabicyclo[2.2.2]octan-2-yl)nicotinonitrile] gave an IC50 of 10 to 100 nM.
CC(C)(OCC(=O)N1CC2CCC(C1)N2c1ccc(C#N)cn1)c1cccc2ncnn12 (racemic) [Example 203, 6-(3-(2-((2-([1,2,4]triazolo[1,5-a]pyridin-5-yl)propan-2-yl)oxy)acetyl)-3,8-diazabicyclo[3.2.1]octan-8-yl)nicotinonitrile] was tested, and the IC50 was 100 to 1000 nM.
For N#Cc1ccc(N2[C@@H]3CC[C@H]2CN(C(=O)CCNC2(c4ccc(F)c(F)c4)CCC2)C3)nc1 [Example 37, 6-(3-(3-((1-(3,4-difluorophenyl)cyclobutyl)amino)propanoyl)-3,8-diazabicyclo[3.2.1]octan-8-yl)nicotinonitrile], the IC50 was less than 10 nM.
CC(NCC(=O)N1CC2CCC(C1)N2c1ccc(C#N)cn1)c1ccc(F)cc1F (stereo in doubt) [Example 88, 6-(3-(((S)-1-(2,4-difluorophenyl)ethyl)glycyl)-3,8-diazabicyclo[3.2.1]octan-8-yl)nicotinonitrile] gave an IC50 of 1000 to 10000 nM.
With COc1cccc(C2(OCC(=O)N3CC4CCC(C3)N4c3ccc(C#N)cn3)CCC2)n1 [Example 253, 6-(3-(2-(1-(6-methoxypyridin-2-yl)cyclobutoxy)acetyl)-3,8-diazabicyclo[3.2.1]octan-8-yl)nicotinonitrile] the IC50 was less than 10 nM.
Work on COc1ccc(C2(NCCC(=O)N3CC4CCC(C3)N4c3ccc(C#N)cn3)CC2)cc1 [Example 17, 6-(3-(3-((1-(4-methoxyphenyl)cyclopropyl)amino)propanoyl)-3,8-diazabicyclo[3.2.1]octan-8-yl)nicotinonitrile] yielded an IC50 of 100 to 1000 nM.
In the case of N#Cc1ccc(N2C3CCC2CN(C(=O)COC2(c4cncc(F)c4)CCCC2)C3)nc1 [Example 268, 6-(3-(2-((1-(5-fluoropyridin-3-yl)cyclopentyl)oxy)acetyl)-3,8-diazabicyclo[3.2.1]octan-8-yl)nicotinonitrile], the IC50 is reported as 10 to 100 nM.
With N#Cc1ccc(N2C3CCC2CN(C(=O)CNC2(c4ccc(F)cc4F)CCC2)C3)nc1 [Example 115, 6-(3-((1-(2,4-difluorophenyl)cyclobutyl)glycyl)-3,8-diazabicyclo[3.2.1]octan-8-yl)nicotinonitrile] the IC50 was 10 to 100 nM.
N#Cc1ccc(N2C3CCC2CN(C(=O)CNC2CCc4ccccc42)C3)nc1 (racemic) [Example 89, 6-(3-((2,3-dihydro-1H-inden-1-yl)glycyl)-3,8-diazabicyclo[3.2.1]octan-8-yl)nicotinonitrile] was tested, and the IC50 was 1000 to 10000 nM.
CC(SCC(=O)N1CC2CCC(C1)N2c1ccc(C#N)cn1)c1ccc(F)cc1 (racemic) [Example 133, 6-(3-(2-((1-(4-fluorophenyl)ethyl)thio)acetyl)-3,8-diazabicyclo[3.2.1]octan-8-yl)nicotinonitrile] gave an IC50 of 10 to 100 nM.
Compound N#Cc1ccc(N2C3CCC2CN(C(=O)COC2(c4ccc(F)cc4)CC2)C3)nc1 [Example 205, 6-(3-(2-(1-(4-fluorophenyl)cyclopropoxy)acetyl)-3,8-diazabicyclo[3.2.1]octan-8-yl)nicotinonitrile] has an IC50 of 100 to 1000 nM.
N#Cc1ccc(N2C[C@@H]3CC[C@H]2CN3C(=O)COC2(c3ccc(F)c(F)c3)CC2)nc1 [Example 283, 6-((1S,4S)-5-(2-(1-(3,4-difluorophenyl)cyclopropoxy)acetyl)-2,5-diazabicyclo[2.2.2]octan-2-yl)nicotinonitrile] showed an IC50 of 100 to 1000 nM.
With N#Cc1ccc(N2C3CCC2CN(C(=O)CNC2(c4c(F)cccc4F)CC2)C3)nc1 [Example 72, 6-(3-((1-(2,6-difluorophenyl)cyclopropyl)glycyl)-3,8-diazabicyclo[3.2.1]octan-8-yl)nicotinonitrile] the IC50 was 100 to 1000 nM.
N#Cc1ccc(N2[C@@H]3CC[C@H]2CN(C(=O)CCNC2(c4ccc(Cl)c(Cl)c4)CC2)C3)nc1 [Example 10, 6-(3-(3-((1-(3,4-dichlorophenyl)cyclopropyl)amino)propanoyl)-3,8-diazabicyclo[3.2.1]octan-8-yl)nicotinonitrile] showed an IC50 of less than 10 nM.
For COc1ccc(C2(OCC(=O)N3CC4CCC(C3)N4c3ccc(C#N)cn3)CC2)c(F)c1 [Example 223, 6-(3-(2-(1-(2-fluoro-4-methoxyphenyl)cyclopropoxy)acetyl)-3,8-diazabicyclo[3.2.1]octan-8-yl)nicotinonitrile], the IC50 was greater than 1000 nM.
For COc1cc(C(F)(F)CCC(=O)N2CC3CCC(C2)N3c2ccnc(C#N)c2)ccn1 [Example 156, 4-(3-(4,4-difluoro-4-(2-methoxypyridin-4-yl)butanoyl)-3,8-diazabicyclo[3.2.1]octan-8-yl)picolinonitrile], the IC50 was 100 to 1000 nM.
Work on C[C@H](NCCC(=O)N1C[C@H]2CC[C@@H](C1)N2c1ccc(C#N)cn1)c1ccc(F)cc1F [Example 9, 6-(3-(3-(((S)-1-(2,4-difluorophenyl)ethyl)amino)propanoyl)-3,8-diazabicyclo[3.2.1]octan-8-yl)nicotinonitrile] yielded an IC50 of 100 to 1000 nM.
In the case of N#Cc1ccc(N2C3CCC2CN(C(=O)COC(c2ccc(F)cc2)C(F)F)C3)nc1 (racemic) [Example 200, 6-(3-(2-(2,2-difluoro-1-(4-fluorophenyl)ethoxy)acetyl)-3,8-diazabicyclo[3.2.1]octan-8-yl)nicotinonitrile], the IC50 is reported as 10 to 100 nM.
In the case of COc1ncccc1C(F)(F)/C=C/C(=O)N1C[C@H]2CC[C@@H](C1)N2c1ccc(C#N)cn1 [Example 141, 6-(3-((E)-4,4-difluoro-4-(2-methoxypyridin-3-yl)but-2-enoyl)-3,8-diazabicyclo[3.2.1]octan-8-yl)nicotinonitrile], the IC50 is reported as less than 10 nM.
In the case of N#Cc1ccc(N2[C@@H]3CC[C@H]2CN(C(=O)CCNC2(c4ccc(F)cn4)CC2)C3)nc1 [Example 29, 6-(3-(3-((1-(5-fluoropyridin-2-yl)cyclopropyl)amino)propanoyl)-3,8-diazabicyclo[3.2.1]octan-8-yl)nicotinonitrile], the IC50 is reported as 1000 to 10000 nM.
Work on N#Cc1ccc(N2C3CCC2CN(C(=O)COC2(c4c(F)cncc4F)CCC2)C3)nc1 [Example 316, 6-(3-(2-(1-(3,5-difluoropyridin-4-yl)cyclobutoxy)acetyl)-3,8-diazabicyclo[3.2.1]octan-8-yl)nicotinonitrile] yielded an IC50 of less than 10 nM.
CC(OCCC(=O)N1CC2CCC(C1)N2c1ccc(C#N)cn1)c1cccc2nccnc12 (racemic) [Example 312, 6-(3-(3-(1-(quinoxalin-5-yl)ethoxy)propanoyl)-3,8-diazabicyclo[3.2.1]octan-8-yl)nicotinonitrile] was tested, and the IC50 was less than 10 nM.
Compound N#Cc1ccc(N2[C@@H]3CC[C@H]2CN(C(=O)CCNC2(c4ncccc4F)CC2)C3)nc1 [Example 20, 6-(3-(3-((1-(3-fluoropyridin-2-yl)cyclopropyl)amino)propanoyl)-3,8-diazabicyclo[3.2.1]octan-8-yl)nicotinonitrile] has an IC50 of 1000 to 10000 nM.
Work on N#Cc1cnc(N2[C@@H]3CC[C@H]2CN(C(=O)CCNC2(c4ccc(F)c(F)c4)CC2)C3)cn1 [Example 45, 5-(3-(3-((1-(3,4-difluorophenyl)cyclopropyl)amino)propanoyl)-3,8-diazabicyclo[3.2.1]octan-8-yl)pyrazine-2-carbonitrile] yielded an IC50 of 10 to 100 nM.
